Measured values: patent publication US12077503B2, “Substituted cyclic amides and their use as herbicides” (FMC CORPORATION, priority 2015, dated 2024)

Columns and labels:
Assay type in all cases: in vivo
Kochia (Kochia scoparia) [1] = test: Test A preemergence; conditions: Bassia scoparia, pre-emergence, 240 h, Preemergence; for pest or weed control at 31 g/ha: 31 g ai/ha, 0 to 100 scale where 0 is no effect and 100 is complete control, read-out: Kochia plant response rating; for pest or weed control at 125 g/ha: 125 g ai/ha, 0 to 100 scale (0 no effect, 100 complete control), read-out: Plant response rating, Kochia
Outline: (§1)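 Visual injury scores from 0, no effect, to 100, complete control, were assigned versus untreated controls roughly 10 d after treatment in the greenhouse. Test chemicals, formulated with surfactant in a non-phytotoxic solvent, were applied to planted seeds as a preemergence soil spray or postemergence to one- to two-leaf plants 2 to 10 cm tall, in loam–sand soil.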

[2] = tested on: ragweed (common ragweed, Ambrosia elatior); test: Test A preemergence; conditions: Ambrosia artemisiifolia, pre-emergence, 240 h, Preemergence; for pest or weed control at 31 g/ha: 31 g ai/ha, 0 to 100 scale where 0 is no effect and 100 is complete control, read-out: Ragweed plant response rating; for pest or weed control at 125 g/ha: 125 g ai/ha, 0 to 100 scale (0 no effect, 100 complete control), read-out: Plant response rating, Ragweed
Outline: as §1

[3] = tested on: giant foxtail (Setaria faberii); test: Test A preemergence; conditions: Setaria faberi, pre-emergence, 240 h, Preemergence; for pest or weed control at 31 g/ha: 31 g ai/ha, 0 to 100 scale where 0 is no effect and 100 is complete control, read-out: Foxtail, Giant plant response rating; for pest or weed control at 125 g/ha: 125 g ai/ha, 0 to 100 scale (0 no effect, 100 complete control), read-out: Plant response rating, Foxtail, Giant
Outline: as §1

[4] = tested on: pigweed (Amaranthus retroflexus); test: Test A preemergence; conditions: Amaranthus retroflexus, pre-emergence, 240 h, Preemergence; for pest or weed control at 31 g/ha: 31 g ai/ha, 0 to 100 scale where 0 is no effect and 100 is complete control, read-out: Pigweed plant response rating; for pest or weed control at 125 g/ha: 125 g ai/ha, 0 to 100 scale (0 no effect, 100 complete control), read-out: Plant response rating, Pigweed
[5] = tested on: ryegrass, Italian (Italian ryegrass, Lolium multiflorum); test: Test A preemergence; conditions: Lolium multiflorum, pre-emergence, 240 h, Preemergence; for pest or weed control at 31 g/ha: 31 g ai/ha, 0 to 100 scale where 0 is no effect and 100 is complete control, read-out: Ryegrass, Italian plant response rating; for pest or weed control at 125 g/ha: 125 g ai/ha, 0 to 100 scale (0 no effect, 100 complete control), read-out: Plant response rating, Ryegrass, Italian
Outline: as §1

[6] = tested on: barnyardgrass (Echinochloa crus-galli); test: Test A preemergence; conditions: Echinochloa crus-galli, pre-emergence, 240 h, Preemergence; for pest or weed control at 31 g/ha: 31 g ai/ha, 0 to 100 scale where 0 is no effect and 100 is complete control, read-out: Barnyardgrass plant response rating; for pest or weed control at 125 g/ha: 125 g ai/ha, 0 to 100 scale (0 no effect, 100 complete control), read-out: Plant response rating, Barnyardgrass
Outline: as §1

corn (Zea mays) = test: Test A postemergence; conditions: Zea mays, post-emergence, 240 h, Postemergence, read-out: Corn plant response rating (0 to 100 scale); for plant injury at 125 g/ha: 125 g ai/ha, visual rating about 10 d after treatment; for plant injury at 31 g/ha: 31 g ai/ha, 0 is no effect, 100 is complete control
Outline: as §1

[7] = tested on: blackgrass (Alopecurus myosuroides); test: Test A postemergence; conditions: Alopecurus myosuroides, post-emergence, 240 h, Postemergence, read-out: Blackgrass plant response rating (0 to 100 scale); for pest or weed control at 125 g/ha: 125 g ai/ha, visual rating about 10 d after treatment; for pest or weed control at 31 g/ha: 31 g ai/ha, 0 is no effect, 100 is complete control
Outline: as §1

[8] = tested on: wheat (Triticum aestivum); test: Test A postemergence; conditions: Triticum aestivum, post-emergence, 240 h, Postemergence, read-out: Wheat plant response rating (0 to 100 scale); for plant injury at 125 g/ha: 125 g ai/ha, visual rating about 10 d after treatment; for plant injury at 31 g/ha: 31 g ai/ha, 0 is no effect, 100 is complete control
Outline: as §1

Kochia (Kochia scoparia) [9] = test: Test A postemergence; conditions: Bassia scoparia, post-emergence, 240 h, Postemergence, read-out: Kochia plant response rating (0 to 100 scale); for pest or weed control at 125 g/ha: 125 g ai/ha, visual rating about 10 d after treatment; for pest or weed control at 31 g/ha: 31 g ai/ha, 0 is no effect, 100 is complete control
Outline: as §1

[10] = tested on: Galium (catchweed bedstraw, Galium aparine); test: Test A postemergence; conditions: Galium, post-emergence, 240 h, Postemergence, read-out: Galium plant response rating (0 to 100 scale); for pest or weed control at 125 g/ha: 125 g ai/ha, visual rating about 10 d after treatment; for pest or weed control at 31 g/ha: 31 g ai/ha, 0 is no effect, 100 is complete control
Outline: as §1

[11] = tested on: ragweed (common ragweed, Ambrosia elatior); test: Test A postemergence; conditions: Ambrosia artemisiifolia, post-emergence, 240 h, Postemergence, read-out: Ragweed plant response rating (0 to 100 scale); for pest or weed control at 125 g/ha: 125 g ai/ha, visual rating about 10 d after treatment; for pest or weed control at 31 g/ha: 31 g ai/ha, 0 is no effect, 100 is complete control
Outline: as §1

[12] = tested on: giant foxtail (Setaria faberii); test: Test A postemergence; conditions: Setaria faberi, post-emergence, 240 h, Postemergence, read-out: Foxtail, Giant plant response rating (0 to 100 scale); for pest or weed control at 125 g/ha: 125 g ai/ha, visual rating about 10 d after treatment; for pest or weed control at 31 g/ha: 31 g ai/ha, 0 is no effect, 100 is complete control
Outline: as §1

[13] = tested on: pigweed (Amaranthus retroflexus); test: Test A postemergence; conditions: Amaranthus retroflexus, post-emergence, 240 h, Postemergence, read-out: Pigweed plant response rating (0 to 100 scale); for pest or weed control at 125 g/ha: 125 g ai/ha, visual rating about 10 d after treatment; for pest or weed control at 31 g/ha: 31 g ai/ha, 0 is no effect, 100 is complete control
Outline: as §1

[14] = tested on: ryegrass, Italian (Italian ryegrass, Lolium multiflorum); test: Test A postemergence; conditions: Lolium multiflorum, post-emergence, 240 h, Postemergence, read-out: Ryegrass, Italian plant response rating (0 to 100 scale); for pest or weed control at 125 g/ha: 125 g ai/ha, visual rating about 10 d after treatment; for pest or weed control at 31 g/ha: 31 g ai/ha, 0 is no effect, 100 is complete control
Outline: as §1

[15] = tested on: barnyardgrass (Echinochloa crus-galli); test: Test A postemergence; conditions: Echinochloa crus-galli, post-emergence, 240 h, Postemergence; for pest or weed control at 125 g/ha: 125 g ai/ha, visual rating about 10 d after treatment, read-out: Barnyardgrass plant response rating (0 to 100 scale, 0 no effect, 100 complete control); for pest or weed control at 31 g/ha: 31 g ai/ha, 0 is no effect, 100 is complete control, read-out: Barnyardgrass plant response rating (0 to 100 scale)
Outline: as §1

[16] = tested on: sedge, umbrella (small-flower umbrella sedge, Cyperus difformis); test: Test B flooded paddy test; conditions: Cyperus difformis, 360 h, Flood, 250 g ai/ha; visually evaluated after 13 to 15 d; read-out: Plant response rating, Sedge, Umbrella (0 to 100 scale where 0 is no effect and 100 is complete control)
Outline: (§2)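 Rating scale 0–100 (visual, vs untreated controls) after a 13–15 d greenhouse period; application to the flood layer, 3 cm above soil and maintained; plants at 2-leaf stage when treated.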

[17] = tested on: ducksalad (Heteranthera limosa); test: Test B flooded paddy test; conditions: Heteranthera limosa, 360 h, Flood, 250 g ai/ha; visually evaluated after 13 to 15 d; read-out: Plant response rating, Ducksalad (0 to 100 scale where 0 is no effect and 100 is complete control)
Outline: as §2

rice (Oryra sativa) = test: Test B flooded paddy test; conditions: Oryza sativa, 360 h, Flood, 250 g ai/ha; visually evaluated after 13 to 15 d; read-out: Plant response rating, Rice (0 to 100 scale where 0 is no effect and 100 is complete control)
Outline: as §2

[18] = tested on: barnyardgrass (Echinochloa crus-galli); test: Test B flooded paddy test; conditions: Echinochloa crus-galli, 360 h, Flood, 250 g ai/ha; visually evaluated after 13 to 15 d; read-out: Plant response rating, Barnyardgrass (0 to 100 scale where 0 is no effect and 100 is complete control)
Outline: as §2

`Cc1cccc([C@H]2CN(C)C(=O)[C@@H]2C(=O)Nc2cnccc2C)c1` [Compound 1344] showed a pest or weed control at 31 g/ha (Kochia (Kochia scoparia) [1]) of 0%, a pest or weed control at 125 g/ha (Kochia (Kochia scoparia) [1]) of 0% and a pest or weed control at 31 g/ha [2] of 0%. It also gave a pest or weed control at 125 g/ha [2] of 0%, a pest or weed control at 31 g/ha [3] of 0% and a pest or weed control at 125 g/ha [3] of 0%. For the same compound, the pest or weed control at 31 g/ha [4] was 0%, the pest or weed control at 125 g/ha [4] was 0% and the pest or weed control at 31 g/ha [5] was 0%. For the same compound, the pest or weed control at 125 g/ha [5] was 0%, the pest or weed control at 31 g/ha [6] was 0% and the pest or weed control at 125 g/ha [6] was 0%. It also gave a plant injury at 125 g/ha (corn (Zea mays)) of 0%, a plant injury at 31 g/ha (corn (Zea mays)) of 0% and a pest or weed control at 125 g/ha [7] of 0%. For the same compound, the pest or weed control at 31 g/ha [7] was 0%, the plant injury at 125 g/ha [8] was 0% and the plant injury at 31 g/ha [8] was 0%. For the same compound, the pest or weed control at 125 g/ha (Kochia (Kochia scoparia) [9]) was 0%, the pest or weed control at 31 g/ha (Kochia (Kochia scoparia) [9]) was 0% and the pest or weed control at 125 g/ha [10] was 0%. The pest or weed control at 31 g/ha [10] was 0%, the pest or weed control at 125 g/ha [11] was 0% and the pest or weed control at 31 g/ha [11] was 0%. It also gave a pest or weed control at 125 g/ha [12] of 0%, a pest or weed control at 31 g/ha [12] of 0% and a pest or weed control at 125 g/ha [13] of 0%. The pest or weed control at 31 g/ha [13] was 0%, the pest or weed control at 125 g/ha [14] was 0% and the pest or weed control at 31 g/ha [14] was 0%. It also gave a pest or weed control at 125 g/ha [15] of 0%, a pest or weed control at 31 g/ha [15] of 0% and a pest or weed control at 250 g/ha [16] of 0%. It also gave a pest or weed control at 250 g/ha [17] of 0%, a pest or weed control at 250 g/ha (rice (Oryra sativa)) of 0% and a pest or weed control at 250 g/ha [18] of 0%.
In the case of `CN1C[C@H](c2cccc(C(F)(F)F)c2)[C@@H](C(=O)Nc2ccc(F)nc2F)C1=O` [Compound 1348], the pest or weed control at 31 g/ha (Kochia (Kochia scoparia) [1]) is reported as 0%, the pest or weed control at 125 g/ha (Kochia (Kochia scoparia) [1]) is reported as 80% and the pest or weed control at 31 g/ha [2] is reported as 80%. The pest or weed control at 125 g/ha [2] was 20%, the pest or weed control at 31 g/ha [3] was 100% and the pest or weed control at 125 g/ha [3] was 100%. It also gave a pest or weed control at 31 g/ha [4] of 0%, a pest or weed control at 125 g/ha [4] of 100% and a pest or weed control at 31 g/ha [5] of 20%. It also gave a pest or weed control at 125 g/ha [5] of 60%, a pest or weed control at 31 g/ha [6] of 90% and a pest or weed control at 125 g/ha [6] of 100%. It also gave a plant injury at 125 g/ha (corn (Zea mays)) of 80%, a plant injury at 31 g/ha (corn (Zea mays)) of 50% and a pest or weed control at 125 g/ha [7] of 50%. The pest or weed control at 31 g/ha [7] was 50%, the plant injury at 125 g/ha [8] was 60% and the plant injury at 31 g/ha [8] was 40%. For the same compound, the pest or weed control at 125 g/ha (Kochia (Kochia scoparia) [9]) was 50%, the pest or weed control at 31 g/ha (Kochia (Kochia scoparia) [9]) was 0% and the pest or weed control at 125 g/ha [10] was 70%. It also gave a pest or weed control at 31 g/ha [10] of 50%, a pest or weed control at 125 g/ha [11] of 20% and a pest or weed control at 31 g/ha [11] of 0%. It also gave a pest or weed control at 125 g/ha [12] of 90%, a pest or weed control at 31 g/ha [12] of 90% and a pest or weed control at 125 g/ha [13] of 0%. The pest or weed control at 31 g/ha [13] was 0%, the pest or weed control at 125 g/ha [14] was 30% and the pest or weed control at 31 g/ha [14] was 20%. It also gave a pest or weed control at 125 g/ha [15] of 90%, a pest or weed control at 31 g/ha [15] of 90% and a pest or weed control at 250 g/ha [16] of 0%. For the same compound, the pest or weed control at 250 g/ha [17] was 98%, the pest or weed control at 250 g/ha (rice (Oryra sativa)) was 0% and the pest or weed control at 250 g/ha [18] was 90%.
